Results: patent US20020055541A1, “Compositions containing hypotriglyceridemically active stilbenoids” (Shaman Pharmaceuticals, Inc., priority 2000, published 2002)
Each block holds one molecule with its values, some of them ahead of it.

Columns and labels:
[1] = reported by Arichi et al., Chem. Pharm. Bull. 30(5) 1766-1770 (1982); cited from earlier work
[2] = reported by Inamori et al., Chem. Phar. Bull. 33(7):2904-09 (1985); cited from earlier work
[3] = Food consumption in fat fed, STZ treated rats; assay type: in vivo, rat; conditions: 250 mg/kg q.d., FIG. 4
Procedure: (§1) FIG. 4 is a line graph showing the mean food consumption (mg) in fat fed, STZ treated rats administered with GELUCIRE™ vehicle only; and 3-hydroxy-4-(3-methyl-2-butenyl)-5-methoxystilbene-2-carboxylic acid (Compound A). -O- represents vehicle; and -▪- represents Compound A administered at 250 mg/kg q.d. Animals were administered the vehicle and compounds at 24, 48, 72 and 96 h, and […] were measured at 0, 30, 51, 54, 75 and 80 hours after the oral administration. All data points N=8. *P<0.05 (analysis of variance (ANOVA), one factor).
(§2) Male Sprague Dawley rats arrival from Charles River Laboratories, Hollister, Calif., were fed a high fat (20% by weight) diet (TD 78463) obtained from Harlan Teklad, Madison, Wis., which was stored at 4° C. prior to use. Administration of a high fed diet is a well-known method of inducing hypertriglyceridemia in rats.
(§3) Compound A formulations were prepared fresh daily. The appropriate amount of Compound A in GELUCIRE™ was administered by oral gavage at a volume of 2.5 ml/kg of body weight. Animals were fasted at 8:00 am each day.

[4] = Body weight in fat fed, STZ treated rats; assay type: in vivo, rat; conditions: 250 mg/kg q.d., FIG. 3
Procedure: as §1, with “FIG. 3” for “FIG. 4”, “mean body weight” for “mean food consumption”
as §2, §3

[5] = tested on: fat fed, STZ treated male Sprague Dawley rats; assay: Serum triglyceride levels in fat-fed STZ treated rats (model of hypertriglyceridemia); assay type: in vivo, rat
Description: This example illustrates the effectiveness of the stilbenoids of formula (I) in reducing serum triglyceride levels in fat-fed STZ treated male Sprague Dawley rats, i.e., an art-recognized model of hypertriglyceridemia.
This example illustrates the effectiveness of the stilbenoids of formula (I), e.g. longistyline A-2-carboxylic acid (Compound A) in reducing serum triglyceride levels in fat fed, STZ treated male Sprague Dawley rats, i.e., an art recognized model of hypertriglyceridemia. […]
Blood samples from tail snips bleeds were collected six hours after the dose on day one, and three (3) and six (6) hours after the administration of the dose on days 2 through 4 into M brand (Becton Dickinson, Franklin Lakes, NJ) serum separator tubes, and centrifuged at 12,000 rpm for 10 minutes. Serum was removed and triglyceride levels were measured using enzymatic […] methods (M. W. McGowan, et al., Clin. Chem. 29, 538 (1983) and P Trinder, Ann. Clin. Biochem. 6, 24 (1969)) using Sigma Diagnostic Kits, Sigma Chemical Company, St. Louis, Mo.
Triglyceride levels are expressed as the mean +SEM. Data were analyzed by one-way analysis of variance (ANOVA), followed by post-hoc Fisher's protected least squares difference (PLSD) tests. […]

Compound: OC[C@H]1OC(Oc2c(O)cc(O)cc2C=Cc2ccc(O)cc2)[C@H](O)[C@@H](O)[C@@H]1O (stereo partly drawn) [2,3,5,4′-tetrahydroxy stilbene-2-O-D-glucoside]
Serum triglyceride levels [1]: reduce

Compound: Oc1cc(O)cc(C=Cc2ccc(O)c(O)c2)c1 [3,3′,4,5′-tetrahydroxystilbene]
Antifungal activity [2]: strong

Food intake (daily mean food consumption) [3]: not effected by the treatments
Compound: COc1cc(/C=C/c2ccccc2)c(C(=O)O)c(O)c1CC=C(C)C [Compound A, 3-hydroxy-4-(3-methyl-2-butenyl)-5-methoxystilbene-2-carboxylic acid]
Gain in rat body weight over the course of treatment [4]: normal and similar among the treatment groups
Serum triglyceride (TG) levels vs vehicle only, at each of the time points ([5]; 250 mg/kg body weight q.d. oral gavage in GELUCIRE vehicle, fat fed STZ rats, N=8, p<0.05, FIG. 2): significantly lower
Mean TG levels vs GELUCIRE vehicle group, compared at individual sampling times ([5]; 250 mg/kg body weight q.d., from day 2 through the end of treatment): significantly lower

Compound: OC[C@H]1O[C@@H](Oc2cc(O)cc(/C=C/c3ccc(O)cc3)c2)[C@H](O)[C@@H](O)[C@@H]1O [Piceid, 3,4′,5-trihydroxystilbene-3-O-β-D-glucopyranoside]
Liver lipid levels [1]: lower
Serum triglyceride levels [1]: lower
